In patent publication US20090093069A1, “Topiramate Immunoassays” (ARK Diagnostics, Inc., priority 2007, published 2009):
Read-outs that look alike come from different tables or passages of the source.

Experiments:
[1] = test system: serum proteins; conditions: cited from earlier work
[2] = test system: patients with drug refractory (mostly partial) epilepsy; conditions: Stephen et al. (2000), 170 patients, cited from earlier work
[3] = test system: rabbit polyclonal antibody #11341; assay: ARK homogeneous enzyme immunoassay, topiramate calibration curve on HITACHI 917; type: binding; conditions: conjugate 12-G6PDH
Description: Rabbit polyclonal antibody […] was used to generate a calibration curve, and evaluate assay precision, accuracy and specificity. The antibody was added into the antibody diluent to prepare the antibody reagent. The antibody reagent consists of antibody as prepared above, buffer, stabilizers, preservatives, and the substrates for the enzyme conjugate NAD and glucose 6 phosphate. Enzyme conjugate comprising compound (12-G6PDH) G6PDH was added into the conjugate reagent to prepare the enzyme conjugate reagent. The enzyme conjugate reagent consists of the conjugate, buffer, stabilizers and preservatives. Enzyme conjugate (12-G6PDH) was used with rabbit polyclonal antibody #11341 in examples below. This technique is generally applicable to produce polyclonal antibodies to diacetonefructose derivatives and assess their utility.
The diacetonefructose derivative antibodies and enzyme conjugates may be advantageously used in a homogeneous assay format to detect topiramate in samples. An enzyme immunoassay or ARK Assay, which is a homogeneous enzyme immunoassay experiment, is performed to test the polyclonal antibodies prepared as in Example 17. The ARK Assay for topiramate is conducted using a liquid, ready-to-use, two-reagent kit. A clinical chemistry analyzer useful to set up the assay is HITACHI 917. The HITACHI 917 is an automated biochemistry analyser used by medical laboratories to process biological fluid specimens, such as urine, cerebrospinal fluid, and most commonly, blood. Manufactured by Boehringer Mannheim, the HITACHI 917 is a commonly used routine chemical bichromatic analyzer. Topiramate containing sample is incubated with antibody reagent followed by the addition of the enzyme conjugate reagent. The enzyme conjugate activity decreases upon binding to the antibody. The enzyme conjugate, which is not bound to the antibody, catalyzes the oxidation of glucose 6-phosphate (G6P). The oxidation of G6P is coupled with the reduction of NAD^+ to NADH, which can be measured at 340 nm. The change in the absorbance at 340 nm can be measured spectrophotometrically. The topiramate concentration in a specimen can be measured in terms of G6PDH activity. The increase in the rate at 340 nm is due to the formation of NADH and is proportional to the enzyme conjugate activity. An assay calibration curve is generated using topiramate spiked into negative calibrator matrix (See Example 19 below). The assay rate increases with increasing the concentration of drug in the sample.
Topiramate was dissolved in methanol to give a stock solution of 1000 μg/mL. Pooled human serum was aliquoted in 10 mL portions. Topiramate stock solution was added to the aliquots of human serum in preparing a series of known concentrations of topiramate calibrators ranging from 0 to 60 μg/mL. Similarly, Quality Control samples were prepared (2.0, 10.0 and 40.0 μg/mL). Antibody Reagent was prepared by adding antibody […] to antibody/substrate diluent. The antibody/substrate reagent was assayed with Enzyme Conjugate Reagent (12-G6PDH). Calibration curves were generated on the HITACHI 917 automated clinical chemistry analyzer, as described in Example 18 by assaying each level in duplicate.

[4] = test system: antibodies raised with immunogens (10-KLH, 12-KLH, 12-L-KLH, 19-KLH, 22-KLH and 25-KLH); assay: Enzyme-based assay format, reactivity of antibodies raised with the immunogens; type: binding
Excerpt: All the prepared haptens have utility for KLH and G6PDH bio-conjugation. immunogens (10-KLH, 12-KLH, 12-L-KLH, 19-KLH, 22-KLH and 25-KLH) were used to raise antibodies.

[5] = cited from earlier work; for mean topiramate serum concentration: Lhatoo et al. (2000); for topiramate concentrations: May et al. (2002)
[6] = cited from earlier work
[7] = dose escalation add-on studies, morning serum concentrations

In the case of CC1(C)O[C@@H]2[C@@H](CO[C@@]3(COS(N)(=O)=O)OC(C)(C)O[C@@H]23)O1 [Topiramate, 2,3:4,5-bis-O-(1-methylethylidene)-β-D-fructopyranose sulfamate], the “bound to serum proteins” value [1] is listed as 15%, the “patients with favorable response” value ([2]; wide range of doses and serum concentrations) is listed as 70% and the patients becoming seizure-free [2] is listed as 23%. For the same compound, the “Reaction Rate (mA/min) Average of Duplicates” value (“Reaction Rate (mA/min) Average” below) ([3]; topiramate calibrator 3.5 μg/mL in human serum) was 406.0 mA/min, the “Reaction Rate (mA/min) Average” value ([3]; topiramate calibrator 7.5 μg/mL in human serum) was 442.4 mA/min and the “Reaction Rate (mA/min) Average” value ([3]; topiramate calibrator 15.0 μg/mL in human serum) was 478.3 mA/min. For the same compound, the “Reaction Rate (mA/min) Average” value ([3]; topiramate calibrator 30.0 μg/mL in human serum) was 511.6 mA/min, the “Reaction Rate (mA/min) Average” value ([3]; topiramate calibrator 60.0 μg/mL in human serum) was 542.4 mA/min and the “reactivity of the antibodies” value [4] was “good reactivity”. The “serum concentrations at which optimal response is most likely” value ([5]; Christensen et al. (2003), concentration-controlled trial) was 2000 to 10000 ng/mL, the serum topiramate concentrations ([5]; Johannessen et al. (2003), patients treated with therapeutic doses, most studies) was 5 to 20 mg/L and the “mean topiramate serum concentration” value ([5]; patients in whom topiramate was stopped because of adverse effects) was 6 mg/L. For the same compound, the “mean topiramate serum concentration” value ([5]; responders) was 7 mg/L, the “mean topiramate serum concentration” value ([5]; seizure-free patients) was 9 mg/L and the topiramate concentrations ([5]; considerably higher doses (up to 2000 mg/day)) was ≤ 27 mg/L. For the same compound, the topiramate concentrations ([5]; doses of 125-400 mg in addition to other AEDs) was 2.4 to 8 mg/L, the “serum topiramate concentrations in patients with improvement (trend)” value ([5]; Penovich et al. (1997), compared with those without seizure reduction) was > 10 mg/L and the systemic topiramate concentrations ([5]; considerably higher doses, up to 2000 mg) was ≤ 80 µmol·L. For the same compound, the “serum concentrations at which a reduction in seizure control was seen” value [5, 7] was “greater than 75 μmol/L”, the “serum concentrations with significant increase in side effects” value [5, 7] was > 60 µM and the “change of serum topiramate concentrations” value ([6]; clearance decreased by propranolol, amitriptyline, lithium, and sumatriptan) was “slightly increased”. The Tmax ([6]; following oral ingestion) was 2 to 4 h, the bioavailability ([6]; following oral ingestion) was 81-95% and the Vd ([6]; human, in vivo) was 0.6 to 1 L/kg. The “fraction of the dose metabolized” value ([6]; human, in vivo) was “Approximately 50%”, the serum half-life ([6]; human, in vivo) was 20 to 30 h and the half-life ([6]; patients co-prescribed enzyme-inducing AEDs) was “about 12 h”. For the same compound, the “lowering of topiramate concentrations” value ([6]; with valproic acid) was 10-15%.
